Results reported in ChEMBL document CHEMBL3098024, “Synthesis, molecular modeling and biological evaluation of N-benzylidene-2-((5-(pyridin-4-yl)-1,3,4-oxadiazol-2-yl)thio)acetohydrazide derivatives as potential anticancer agents” (Bioorg Med Chem, 2014).

Assays:
[1] = system: MCF7; assay: Cytotoxicity against human MCF7 cells after 48 hrs by MTT assay; assay type: functional, cell-based; conditions: MCF7, 48 h
[2] = Cytotoxicity against human SW1116 cells after 48 hrs by MTT assay; assay type: functional, cell-based; conditions: SW 1116, 48 h
[3] = system: NIH3T3; assay: Cytotoxicity against mouse NIH/3T3 cells after 24 hrs by MTT assay; assay type: ADME, cell-based; conditions: NIH3T3, 24 h
[4] = Inhibition of telomerase in human SW1116 cells after 24 hrs by TRAP-PCR-ELISA assay; assay type: cell-based; conditions: sw 1116
[5] = Cytotoxicity against human BGC823 cells after 48 hrs by MTT assay; assay type: functional, cell-based; conditions: BGC-823, 48 h
[6] = system: HepG2; assay: Cytotoxicity against human HepG2 cells after 48 hrs by MTT assay; assay type: functional, cell-based; conditions: HepG2, 48 h

SMILES | IC50 [1] | IC50 [2] | IC50 [3] | IC50 [4] | pIC50 [4] | IC50 [5] | IC50 [6]
O=C(CSc1nnc(-c2ccncc2)o1)N/N=C/c1cc(Br)ccc1O | 7.77 µM | 8.15 µM | 156 µM | 4.28 µM | 5.37 | 9.59 µM | 6.49 µM
CC[n+]1c(-c2ccccc2)c2cc(N)ccc2c2ccc(N)cc21 [HOMIDIUM BROMIDE] | – | – | 135 µM | 2.71 µM | – | – | –
Cc1ccc(/C=N/NC(=O)CSc2nnc(-c3ccncc3)o2)cc1 | 14.7 µM | 16.8 µM | 185 µM | 8.51 µM | 5.07 | 21.8 µM | 10 µM
COc1cc(/C=N/NC(=O)CSc2nnc(-c3ccncc3)o2)ccc1O | 3.78 µM | 3.59 µM | 148 µM | 2.89 µM | 5.54 | 4.32 µM | 2.92 µM
O=C(CSc1nnc(-c2ccncc2)o1)N/N=C/c1ccc(F)cc1 | 13.5 µM | 15.7 µM | 170 µM | 10.2 µM | 4.99 | 17.8 µM | 12.3 µM
O=C(CSc1nnc(-c2ccncc2)o1)N/N=C/c1ccc(Cl)cc1Cl | 27.9 µM | 28.9 µM | 221 µM | 17.8 µM | 4.75 | 35.6 µM | 18.6 µM
COc1ccc(/C=N/NC(=O)CSc2nnc(-c3ccncc3)o2)cc1 | 17.6 µM | 20.3 µM | 132 µM | 9.04 µM | 5.04 | 19.8 µM | 15.8 µM
O=C(CSc1nnc(-c2ccncc2)o1)N/N=C/c1ccc(Br)cc1 | 19.1 µM | 21.3 µM | 169 µM | 12.4 µM | 4.91 | 24.5 µM | 18.6 µM
O=C(CSc1nnc(-c2ccncc2)o1)N/N=C/C=C/c1ccccc1 | 10.8 µM | 14.9 µM | 160 µM | 6.57 µM | 5.18 | 10.6 µM | 7.42 µM
O=C(CSc1nnc(-c2ccncc2)o1)N/N=C/c1ccc(O)c(O)c1 | 0.91 µM | 1.54 µM | 154 µM | 1.18 µM | 5.93 | 1.26 µM | 0.76 µM
O=C(CSc1nnc(-c2ccncc2)o1)N/N=C/c1cc(Br)cc(Br)c1O | 9.01 µM | 8.57 µM | 190 µM | 7.12 µM | 5.15 | 9.61 µM | 6.54 µM
O=C(CSc1nnc(-c2ccncc2)o1)N/N=C/c1ccccc1[N+](=O)[O-] | 35.6 µM | 30.7 µM | 214 µM | 18.2 µM | 4.74 | 41.6 µM | 24.7 µM
O=C(CSc1nnc(-c2ccncc2)o1)N/N=C/c1cccc(C(F)(F)F)c1 | 14.6 µM | 14.9 µM | 169 µM | 5.18 µM | 5.29 | 13 µM | 6.52 µM
O=c1[nH]cc(F)c(=O)[nH]1 [FLUOROURACIL] | 9.79 µM | 5.26 µM | – | – | – | 7.48 µM | 7.43 µM
O=C(CSc1nnc(-c2ccncc2)o1)N/N=C/c1ccccc1O | 4.75 µM | 7.38 µM | 155 µM | 3.97 µM | 5.4 | 6.16 µM | 3.51 µM
O=C(CSc1nnc(-c2ccncc2)o1)N/N=C/c1cccs1 | 23.5 µM | 24.9 µM | 189 µM | 13.5 µM | 4.87 | 26.7 µM | 14.9 µM
NNC(=O)CSc1nnc(-c2ccncc2)o1 | 3.26 µM | 3.26 µM | – | – | – | 3.26 µM | 3.26 µM
O=C(CSc1nnc(-c2ccncc2)o1)N/N=C/c1ccccc1 | 14.6 µM | 16.7 µM | 167 µM | 9.72 µM | 5.01 | 22.1 µM | 17.3 µM
O=C(CSc1nnc(-c2ccncc2)o1)N/N=C/c1ccc(Cl)cc1 | 15.3 µM | 17 µM | 181 µM | 11.9 µM | 4.93 | 20.5 µM | 15.7 µM
O=C(CSc1nnc(-c2ccncc2)o1)N/N=C/c1ccc([N+](=O)[O-])cc1 | 31.8 µM | 25.8 µM | 195 µM | 16.7 µM | 4.78 | 31.5 µM | 17.9 µM
O=C(CSc1nnc(-c2ccncc2)o1)N/N=C/c1cc(Cl)ccc1O | 5.83 µM | 5.24 µM | 166 µM | 3.13 µM | 5.5 | 5.47 µM | 3.97 µM
O=C(CSc1nnc(-c2ccncc2)o1)N/N=C/c1cccc(F)c1 | 24.9 µM | 26.7 µM | 205 µM | 15.7 µM | 4.8 | 27.5 µM | 19.4 µM
O=C(CSc1nnc(-c2ccncc2)o1)N/N=C/c1ccccc1F | 21.8 µM | 21.5 µM | 142 µM | 14.6 µM | 4.84 | 24 µM | 16 µM
O=C(CSc1nnc(-c2ccncc2)o1)N/N=C/c1cc(Cl)cc(Cl)c1O | 5.92 µM | 5.03 µM | 171 µM | 4.8 µM | 5.32 | 6.34 µM | 3.26 µM
O=C(CSc1nnc(-c2ccncc2)o1)N/N=C/c1ccc(O)cc1 | 11.7 µM | 12.2 µM | 158 µM | 5.36 µM | 5.27 | 7.94 µM | 5.51 µM
O=C(CSc1nnc(-c2ccncc2)o1)N/N=C/c1ccco1 | 16.6 µM | 18.8 µM | 175 µM | 9.63 µM | 5.02 | 25.8 µM | 12.5 µM
COc1cccc(/C=N/NC(=O)CSc2nnc(-c3ccncc3)o2)c1 | 13.8 µM | 16.5 µM | 179 µM | 7.54 µM | 5.12 | 15.8 µM | 9.17 µM
